Assay results: ChEMBL document CHEMBL1139487, “Discovery of corticotropin releasing factor 2 receptor selective sauvagine analogues for treatment of skeletal muscle atrophy” (J Med Chem, 2005)
Square brackets hold non-standard residues; d marks the D form. Peptide text beside a SMILES is read from it. 2Nal = N[C@@H](Cc1ccc2ccccc2c1)C(=O)O; pGlu = O=C1CC[C@@H](C(=O)O)N1

Experiments:
[1] = target: Corticotropin-releasing factor receptor 2 (Mus musculus, UniProt Q60748); assay: In vitro effective concentration for mouse corticotropin releasing factor 2 receptor
Sequence of Corticotropin-releasing factor receptor 2 (Q60748 whole entry): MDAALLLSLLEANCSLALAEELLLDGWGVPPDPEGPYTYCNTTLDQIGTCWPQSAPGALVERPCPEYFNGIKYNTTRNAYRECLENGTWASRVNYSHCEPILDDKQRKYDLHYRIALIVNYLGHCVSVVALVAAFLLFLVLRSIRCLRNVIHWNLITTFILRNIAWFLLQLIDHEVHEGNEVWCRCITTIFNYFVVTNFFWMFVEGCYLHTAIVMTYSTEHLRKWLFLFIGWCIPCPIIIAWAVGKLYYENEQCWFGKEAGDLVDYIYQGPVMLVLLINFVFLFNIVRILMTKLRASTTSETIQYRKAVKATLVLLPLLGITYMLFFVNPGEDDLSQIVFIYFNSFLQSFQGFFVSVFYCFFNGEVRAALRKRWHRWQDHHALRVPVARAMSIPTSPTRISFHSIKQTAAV

[2] = target: T1, Corticotropin-releasing factor receptor 1 (Mus musculus, UniProt P35347); assay: In vitro effective concentration for mouse corticotropin releasing factor 1 receptor
T1 sequence (P35347 whole entry): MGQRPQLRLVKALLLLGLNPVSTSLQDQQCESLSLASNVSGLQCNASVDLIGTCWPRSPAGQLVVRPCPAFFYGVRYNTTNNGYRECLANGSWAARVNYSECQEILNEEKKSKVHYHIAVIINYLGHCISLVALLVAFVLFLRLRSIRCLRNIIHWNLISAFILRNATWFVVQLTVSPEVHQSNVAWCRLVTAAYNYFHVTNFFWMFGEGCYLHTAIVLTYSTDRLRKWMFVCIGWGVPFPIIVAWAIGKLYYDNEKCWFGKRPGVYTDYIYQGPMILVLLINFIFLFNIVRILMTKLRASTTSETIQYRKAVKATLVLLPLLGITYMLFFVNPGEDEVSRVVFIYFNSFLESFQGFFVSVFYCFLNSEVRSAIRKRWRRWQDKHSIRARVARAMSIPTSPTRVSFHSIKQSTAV

Molecule	EC50 [1]	EC50 [2]
CC[C@H](C)[C@H](NC(=O)[C@@H](NC(=O)[C@H](CC(=O)O)NC(=O)[C@H](CC(C)C)NC(=O)[C@H](CC(C)C)NC(=O)[C@H](CC(C)C)NC(=O)[C@H](CCCNC(=N)N)NC(=O)[C@H](CC(N)=O)NC(=O)[C@H](CC(N)=O)NC(=O)[C@H](C)NC(=O)[C@H](C)NC(=O)[C@H](CCC(N)=O)NC(=O)[C@H](CCC(N)=O)NC(=O)[C@H](CCCCN)NC(=O)[C@H](CCC(=O)O)NC(=O)[C@H](CCCCN)NC(=O)[C@H](CCC(=O)O)NC(=O)[C@H](CCC(N)=O)NC(=O)[C@H](CCCCN)NC(=O)[C@H](CCC(=O)O)NC(=O)[C@@H](NC(=O)[C@H](CCC(=O)O)NC(=O)[C@@H](NC(=O)[C@H](CCSC)NC(=O)[C@H](CCCCN)NC(=O)[C@H](CCCNC(=N)N)NC(=O)[C@H](CC(C)C)NC(=O)[C@H](CC(C)C)NC(=O)[C@H](CCC(N)=O)NC(=O)[C@H](CC(C)C)NC(=O)[C@@H]1CCCN1C(=O)[C@H](CC(C)C)NC(=O)[C@H](CC(=O)O)NC(=O)[C@@H](NC(=O)[C@H](CO)NC(=O)[C@@H](NC(=O)[C@@H]1CCCN1C(=O)[C@@H]1CCCN1C(=O)CNC(=O)[C@@H]1CCC(=O)N1)[C@@H](C)CC)[C@@H](C)CC)[C@@H](C)CC)[C@@H](C)CC)[C@@H](C)O)C(=O)O	6.5 nM	423 nM
CC[C@H](C)[C@H](NC(=O)[C@@H](NC(=O)[C@H](CC(=O)O)NC(=O)[C@H](CC(C)C)NC(=O)[C@H](CC(C)C)NC(=O)[C@H](CC(C)C)NC(=O)[C@H](CCCNC(=N)N)NC(=O)[C@H](CC(N)=O)NC(=O)[C@H](CC(N)=O)NC(=O)[C@H](C)NC(=O)[C@H](C)NC(=O)[C@H](CCC(N)=O)NC(=O)[C@H](CCC(N)=O)NC(=O)[C@H](CCCCN)NC(=O)[C@H](CCC(=O)O)NC(=O)[C@H](CCCCN)NC(=O)[C@H](CCC(=O)O)NC(=O)[C@H](CCC(N)=O)NC(=O)[C@H](CCCCN)NC(=O)[C@H](CCC(=O)O)NC(=O)[C@@H](NC(=O)[C@H](CCC(=O)O)NC(=O)[C@@H](NC(=O)[C@H](CCSC)NC(=O)[C@H](CCCCN)NC(=O)[C@H](CCCNC(=N)N)NC(=O)[C@H](CC(C)C)NC(=O)[C@H](CC(C)C)NC(=O)[C@H](Cc1ccc2ccccc2c1)NC(=O)[C@H](C)NC(=O)[C@@H]1CCCN1C(=O)[C@H](CC(C)C)NC(=O)[C@H](CC(=O)O)NC(=O)[C@@H](NC(=O)[C@H](CO)NC(=O)[C@@H](NC(=O)[C@@H]1CCCN1C(=O)[C@@H]1CCCN1C(=O)CNC(=O)[C@@H]1CCC(=O)N1)[C@@H](C)CC)[C@@H](C)CC)[C@@H](C)CC)[C@@H](C)CC)[C@@H](C)O)C(=O)O ([pGlu]GPPISIDLPA[2Nal]LLRKMIEIEKQEKEKQQAANNRLLLDTI-OH)	13.3 nM	582 nM
CC[C@H](C)[C@H](NC(=O)[C@@H](NC(=O)[C@H](CC(=O)O)NC(=O)[C@H](CC(C)C)NC(=O)[C@H](CC(C)C)NC(=O)[C@H](CC(C)C)NC(=O)[C@H](CCCNC(=N)N)NC(=O)[C@H](CC(N)=O)NC(=O)[C@H](CC(N)=O)NC(=O)[C@H](C)NC(=O)[C@H](C)NC(=O)[C@H](CCC(N)=O)NC(=O)[C@H](CCC(N)=O)NC(=O)[C@H](CCCCN)NC(=O)[C@H](CCC(=O)O)NC(=O)[C@H](CCCCN)NC(=O)[C@H](CCC(=O)O)NC(=O)[C@H](CCC(N)=O)NC(=O)[C@H](CCCCN)NC(=O)[C@H](CCC(=O)O)NC(=O)[C@@H](NC(=O)[C@H](CCC(=O)O)NC(=O)[C@@H](NC(=O)[C@H](CCSC)NC(=O)[C@H](CCCCN)NC(=O)[C@H](CCCNC(=N)N)NC(=O)[C@H](CC(C)C)NC(=O)[C@H](CC(C)C)NC(=O)[C@H](Cc1ccc(O)cc1)NC(=O)[C@@H](NC(=O)[C@@H]1CCCN1C(=O)[C@H](CC(C)C)NC(=O)[C@H](CC(=O)O)NC(=O)[C@@H](NC(=O)[C@H](CO)NC(=O)[C@@H](NC(=O)[C@@H]1CCCN1C(=O)[C@@H]1CCCN1C(=O)CNC(=O)[C@@H]1CCC(=O)N1)[C@@H](C)CC)[C@@H](C)CC)[C@@H](C)CC)[C@@H](C)CC)[C@@H](C)CC)[C@@H](C)O)C(=O)O	22.3 nM	> 1000 nM
CC[C@H](C)[C@H](NC(=O)[C@@H](NC(=O)[C@H](CC(=O)O)NC(=O)[C@H](CC(C)C)NC(=O)[C@H](CC(C)C)NC(=O)[C@H](CC(C)C)NC(=O)[C@H](CCCNC(=N)N)NC(=O)[C@H](CC(N)=O)NC(=O)[C@H](CC(N)=O)NC(=O)[C@H](C)NC(=O)[C@H](C)NC(=O)[C@H](CCC(N)=O)NC(=O)[C@H](CCC(N)=O)NC(=O)[C@H](CCCCN)NC(=O)[C@H](CCC(=O)O)NC(=O)[C@H](CCCCN)NC(=O)[C@H](CCC(=O)O)NC(=O)[C@H](CCC(N)=O)NC(=O)[C@H](CCCCN)NC(=O)[C@H](CCC(=O)O)NC(=O)[C@@H](NC(=O)[C@H](CCC(=O)O)NC(=O)[C@@H](NC(=O)[C@H](CCSC)NC(=O)[C@H](CCCCN)NC(=O)[C@H](CCCNC(=N)N)NC(=O)[C@H](CC(C)C)NC(=O)[C@H](CC(C)C)NC(=O)[C@@H](NC(=O)[C@H](CC(C)C)NC(=O)[C@@H]1CCCN1C(=O)[C@H](CC(C)C)NC(=O)[C@H](CC(=O)O)NC(=O)[C@@H](NC(=O)[C@H](CO)NC(=O)[C@@H](NC(=O)[C@@H]1CCCN1C(=O)[C@@H]1CCCN1C(=O)CNC(=O)[C@@H]1CCC(=O)N1)[C@@H](C)CC)[C@@H](C)CC)C(C)C)[C@@H](C)CC)[C@@H](C)CC)[C@@H](C)O)C(=O)O	5.5 nM	265 nM
CC[C@H](C)[C@H](NC(=O)[C@@H](NC(=O)[C@H](CC(=O)O)NC(=O)[C@H](CC(C)C)NC(=O)[C@H](CC(C)C)NC(=O)[C@H](CC(C)C)NC(=O)[C@H](CCCNC(=N)N)NC(=O)[C@H](CC(N)=O)NC(=O)[C@H](CC(N)=O)NC(=O)[C@H](C)NC(=O)[C@H](C)NC(=O)[C@H](CCC(N)=O)NC(=O)[C@H](CCC(N)=O)NC(=O)[C@H](CCCCN)NC(=O)[C@H](CCC(=O)O)NC(=O)[C@H](CCCCN)NC(=O)[C@H](CCC(=O)O)NC(=O)[C@H](CCC(N)=O)NC(=O)[C@H](CCCCN)NC(=O)[C@H](CCC(=O)O)NC(=O)[C@@H](NC(=O)[C@H](CCC(=O)O)NC(=O)[C@@H](NC(=O)[C@H](CCSC)NC(=O)[C@H](CCCCN)NC(=O)[C@H](CCCNC(=N)N)NC(=O)[C@H](CC(C)C)NC(=O)[C@H](CC(C)C)NC(=O)[C@H](Cc1ccc(O)cc1)NC(=O)[C@H](CC(C)C)NC(=O)[C@@H]1CCCN1C(=O)[C@H](CC(C)C)NC(=O)[C@H](CC(=O)O)NC(=O)[C@@H](NC(=O)[C@H](CO)NC(=O)[C@@H](NC(=O)[C@@H]1CCCN1C(=O)[C@@H]1CCCN1C(=O)CNC(=O)[C@@H]1CCC(=O)N1)[C@@H](C)CC)[C@@H](C)CC)[C@@H](C)CC)[C@@H](C)CC)[C@@H](C)O)C(=O)O ([pGlu]GPPISIDLPLYLLRKMIEIEKQEKEKQQAANNRLLLDTI-OH)	4.3 nM	67.9 nM

The remaining molecules from weak to strong by EC50 [1], led by results:

EC50 [1]	EC50 [2]	Molecule
20.6 nM	> 1000 nM	CC[C@H](C)[C@H](NC(=O)[C@@H](NC(=O)[C@H](CC(=O)O)NC(=O)[C@H](CC(C)C)NC(=O)[C@H](CC(C)C)NC(=O)[C@H](CC(C)C)NC(=O)[C@H](CCCNC(=N)N)NC(=O)[C@H](CC(N)=O)NC(=O)[C@H](CC(N)=O)NC(=O)[C@H](C)NC(=O)[C@H](C)NC(=O)[C@H](CCC(N)=O)NC(=O)[C@H](CCC(N)=O)NC(=O)[C@H](CCCCN)NC(=O)[C@H](CCC(=O)O)NC(=O)[C@H](CCCCN)NC(=O)[C@H](CCC(=O)O)NC(=O)[C@H](CCC(N)=O)NC(=O)[C@H](CCCCN)NC(=O)[C@H](CCC(=O)O)NC(=O)[C@@H](NC(=O)[C@H](CCC(=O)O)NC(=O)[C@@H](NC(=O)[C@H](CCSC)NC(=O)[C@H](CCCCN)NC(=O)[C@H](CCCNC(=N)N)NC(=O)[C@H](CC(C)C)NC(=O)[C@H](CC(C)C)NC(=O)[C@H](CC(C)C)NC(=O)[C@@H](NC(=O)[C@@H]1CCCN1C(=O)[C@H](CC(C)C)NC(=O)[C@H](CC(=O)O)NC(=O)[C@@H](NC(=O)[C@H](CO)NC(=O)[C@@H](NC(=O)[C@@H]1CCCN1C(=O)[C@@H]1CCCN1C(=O)CNC(=O)[C@@H]1CCC(=O)N1)[C@@H](C)CC)[C@@H](C)CC)[C@@H](C)O)[C@@H](C)CC)[C@@H](C)CC)[C@@H](C)O)C(=O)O
10.9 nM	96 nM	CC[C@H](C)[C@H](NC(=O)[C@@H](NC(=O)[C@H](CC(=O)O)NC(=O)[C@H](CC(C)C)NC(=O)[C@H](CC(C)C)NC(=O)[C@H](CC(C)C)NC(=O)[C@H](CCCNC(=N)N)NC(=O)[C@H](CC(N)=O)NC(=O)[C@H](CC(N)=O)NC(=O)[C@H](C)NC(=O)[C@H](C)NC(=O)[C@H](CCC(N)=O)NC(=O)[C@H](CCC(N)=O)NC(=O)[C@H](CCCCN)NC(=O)[C@H](CCC(=O)O)NC(=O)[C@H](CCCCN)NC(=O)[C@H](CCC(=O)O)NC(=O)[C@H](CCC(N)=O)NC(=O)[C@H](CCCCN)NC(=O)[C@H](CCC(=O)O)NC(=O)[C@@H](NC(=O)[C@H](CCC(=O)O)NC(=O)[C@@H](NC(=O)[C@H](CCSC)NC(=O)[C@H](CCCCN)NC(=O)[C@H](CCCNC(=N)N)NC(=O)[C@H](CC(C)C)NC(=O)[C@H](CC(C)C)NC(=O)[C@H](CCC(=O)O)NC(=O)[C@H](CC(C)C)NC(=O)[C@@H]1CCCN1C(=O)[C@H](CC(C)C)NC(=O)[C@H](CC(=O)O)NC(=O)[C@@H](NC(=O)[C@H](CO)NC(=O)[C@@H](NC(=O)[C@@H]1CCCN1C(=O)[C@@H]1CCCN1C(=O)CNC(=O)[C@@H]1CCC(=O)N1)[C@@H](C)CC)[C@@H](C)CC)[C@@H](C)CC)[C@@H](C)CC)[C@@H](C)O)C(=O)O
4.3 nM	> 1000 nM	H-IVLSLDVPIGLLQILLEQARARAAREQATTNARILARV-OH [HUMAN UROCORTIN 2]
